In one assay the test system is male CD1 mice. The experiment in a line: Acetic acid graded abdominal irritant test with a 24-hour thioglycolate pretreatment. The format is in vivo. As to conditions: mouse; 30 mg/kg p.o.; time 1 h; abdominal contractions vs vehicle. The procedure:
A chemical irritant (such as acetic acid, kaolin, bradykinin, phenyl-p-(benzo) quinine, bromo-acetylcholine, or zymosan) is injected in mice intraperitoneally, causing a contraction of the abdominal musculature, which is characterized by an elongation of the body extending through to the hind limbs. The number of such responses is quantitated and is reduced by pretreatment of analgesic agents, thus forming the basis for a screening test (Collier H O et al. Br J Pharmacol Chemother 1968, 32(2): 295-310). This type of abdominal irritant test has been used to predict the analgesic effect of numerous clinically effective agents, the potency of which in the abdominal irritant test parallels the magnitude of the dose needed in the relief of clinical pain.
One modification of the chemically-induced abdominal irritant model of visceral pain is to pretreat animals with agents known to induce inflammatory responses following intraperitoneal injection (such as LPS, zymosan, or thioglycolate). […] Because of the up-regulation of the TRPM8 receptor in inflammation, TRPM8 antagonists that are effective at reducing the mean number of contractions are predicted to provide antiinflammatory action in human clinical use.
The ability of compounds of Formula (I) to mitigate chemical irritant—induced abdominal contractions following a pre-conditioning inflammatory stimulus were studied. […]

The next assay concerns Sprague-Dawley rats. The experiment in a line: CFA-induced paw radiant heat hypersensitivity. The format is in vivo, rat. As to conditions: rat; for inhibition in vivo at 30 mg/kg: time 1 h, read-out: % Reversal. How it is done:
Intraplantar injection of Complete Freund's Adjuvant (CFA) in rodents results in a long-lasting inflammatory reaction, characterized by a pronounced hypersensitivity to both thermal and mechanical stimuli. This hypersensitivity peaks between 24-72 hours following injection and can last for several weeks. […] This paradigm also may be conducted with a multiple dosing or a prophylactic dosing regime designed to alter the course of hyperalgesia development. This test predicts the analgesic, anti-allodynic and antihyperalgesic effect of numerous effective clinical agents, including NSAIDS such as acetaminophen, aspirin and ibuprofen, and opioids such as morphine.
Each rat was placed in a test chamber on a warm glass surface and allowed to acclimate for approximately 10 minutes. A radiant thermal stimulus (beam of light) was then focused through the glass onto the plantar surface of each hind paw in turn. The thermal stimulus was automatically shut off by a photoelectric relay when the paw was moved or when the cut-off time was reached (20 seconds for radiant heat at ˜5 Amps). An initial (baseline) response latency to the thermal stimulus was recorded for each animal prior to the injection of CFA. Twenty-four hours following intraplantar CFA injection, the response latency of the animal to the thermal stimulus was then re-evaluated and compared to the animal's baseline response time. […] Immediately following the post-CFA latency assessment, test compound or vehicle (usually Solutol, hydroxypropyl methylcellulose, hydroxypropyl beta-cyclodextrin or PEG-400) was administered i.p. or p.o. to rats. […] The percent reversal (% R) of hypersenstivitiy was calculated according to the following formula:
% Reversal=(Treatment Response-CFA Response)/(Baseline Response-CFA Response)×100.

The next assay relates to Male Sprague Dawley rats. The experiment in a line: Inhibition of icilin-induced wet-dog shakes in rats. The class given is in vivo. To be noted: rat; 30 mg/kg i.p.; 15′ pre icilin; wet-dog shakes vs vehicle.
A further assay has as its target T1, canine TRPM8 (Canis lupus familiaris, UniProt Q1A7N1).
T1 construct: expressed in transfected cells
Nature of the assay: In vitro canine TRPM8 functional assay (Ca2+-sensitive dye, FLIPR/FDSS, icilin activation). The format is cell-based. As to conditions: HEK293 cells expressing canine TRPM8, icilin activation. The method, boiled down:
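HEK293 cells stably expressing canine TRPM8, loaded with Calcium 3 dye, preincubated with compound for 5 min before icilin at a concentration giving ~80% maximal response. Ca2+ fluorescence by FLIPR or FDSS; basal-subtracted, normalized to % maximal response, quadruplicate wells, sigmoidal fit for EC50/IC50.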

Each structure is given as a SMILES string. Several values for one entry are separate records, joined by “and”; a condition that tells them apart may be missing. Identical values can stand only once. Like-named read-outs stand apart in the source and are kept apart here.

T1 sequence (Q1A7N1 1-1104): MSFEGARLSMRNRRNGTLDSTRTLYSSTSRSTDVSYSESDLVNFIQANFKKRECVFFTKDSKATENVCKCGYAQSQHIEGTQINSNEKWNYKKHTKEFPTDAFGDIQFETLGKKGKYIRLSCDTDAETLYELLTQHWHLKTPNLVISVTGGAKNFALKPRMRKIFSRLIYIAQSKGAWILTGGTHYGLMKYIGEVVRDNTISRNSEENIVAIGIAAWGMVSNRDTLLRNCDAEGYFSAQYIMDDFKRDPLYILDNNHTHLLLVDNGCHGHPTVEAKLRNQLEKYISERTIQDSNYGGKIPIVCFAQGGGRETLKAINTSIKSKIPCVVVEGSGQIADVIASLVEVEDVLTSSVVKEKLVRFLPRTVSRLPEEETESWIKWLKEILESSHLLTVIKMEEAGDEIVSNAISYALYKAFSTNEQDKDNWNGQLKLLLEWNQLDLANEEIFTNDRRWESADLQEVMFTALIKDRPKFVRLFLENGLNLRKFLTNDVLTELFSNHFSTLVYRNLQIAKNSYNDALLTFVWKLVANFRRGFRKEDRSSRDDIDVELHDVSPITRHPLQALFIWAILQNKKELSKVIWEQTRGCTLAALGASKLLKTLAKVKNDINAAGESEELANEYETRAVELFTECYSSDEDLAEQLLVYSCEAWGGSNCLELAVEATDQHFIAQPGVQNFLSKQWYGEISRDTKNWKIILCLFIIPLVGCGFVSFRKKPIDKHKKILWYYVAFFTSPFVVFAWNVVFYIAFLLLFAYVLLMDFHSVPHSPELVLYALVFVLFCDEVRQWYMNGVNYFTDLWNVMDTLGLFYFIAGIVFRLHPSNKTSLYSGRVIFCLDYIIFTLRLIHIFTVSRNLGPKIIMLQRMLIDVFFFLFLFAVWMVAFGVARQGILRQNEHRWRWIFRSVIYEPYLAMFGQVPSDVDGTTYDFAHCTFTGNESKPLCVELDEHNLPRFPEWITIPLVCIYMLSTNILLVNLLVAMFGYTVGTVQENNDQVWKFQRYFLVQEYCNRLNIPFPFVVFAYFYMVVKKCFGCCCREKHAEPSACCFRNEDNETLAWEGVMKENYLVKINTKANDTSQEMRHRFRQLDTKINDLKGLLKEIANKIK

Turning to `CC(C)OP(=O)(OC(C)C)C(Cc1ccc(F)c(F)c1)c1sc2ccccc2c1Br` (stereo not shown) [Cpd 15, [1-(3-Bromo-benzo[b]thiophen-2-yl)-2-(3,4-difluoro-phenyl)-ethyl]-phosphonic acid diisopropyl ester], the “% I” value in the assay with male CD1 mice was found to be 33%. Moreover, the inhibition in vivo at 30 mg/kg with Sprague-Dawley rats (ip, 30 mg/kg i.p.) worked out at 95%; in the assay on Sprague-Dawley rats (po, 30 mg/kg p.o.), 82%. In addition, the ED50 (as a rule, the midpoint of the dose-response relation) with Sprague-Dawley rats (po, p.o., 3-point dose-response, 10% solutol vehicle, 1 h time point, read-out: oral ED50) is 11.4 mg/kg. In the assay with Male Sprague Dawley rats, the % Inhibition (as a rule, the drop in the measured response relative to a control, in per cent) is 71.1%. The inhibition at 1 µM on canine TRPM8 (HEK293, 1 μM compound, read-out: % I (1 μM)) stood at 99%. For the same molecule, the half-inhibitory concentration (IC50) (commonly the concentration needed to halve the response being measured) on canine TRPM8 (eight-point dose-response, read-out: IC50) was 29 nM and 48 nM and 105 nM.

The record behind these values is patent US20080287398A1, “COLD MENTHOL RECEPTOR-1 ANTAGONISTS” (priority 2007, published 2008).
